According to patent US4001207A, “Tertiary-aliphatic amidazo compounds” (priority 1971, dated 1977):

Columns and labels:
[1] = Temperature of nitrogen/gas evolution, thermal stability; settings: for temperature at which it evolves nitrogen: evolves nitrogen at / above; for temperature at which it begins to evolve nitrogen: begins to evolve nitrogen (slowly)
[2] = Half-life of thermal decomposition; type: physicochemical
Method: (§1) It produces 179 cc. of gas per gram at 110° C. The following half-life data have been determined:
(§2) To a rapidly stirred mixture of 39.0 g. (0.2 m.) 1 -tert.-butylhydrazo-1-cyanocyclohexane, 200 ml. methylene chloride and 100 ml. water was added 14.3 g. […] The reaction was stirred an additional 15 mins. after the addition was complete. The methylene chloride layer was separated, washed twice with 50 ml. portions of saturated NaHCO3 solution, dried over anhydrous sodium sulfate, filtered and the methylene chloride evaporated on a rotating evaporator to obtain 35.0 g. of liquid product that assayed 86.5% by an ultra violet spectrophotometric analysis. Distillation gave a product, b.p. 71° C./1.2 mm. of Hg that assayed 97.6% as 1-tert.-butylazo- 1-cyanocyclohexane. The infrared spectrum was in accord with this structure. […] It produces 146 cc. of gas per gram at 130° C. The following half-life data have been determined:
The following half-life data have been determined by gas evolution technique using trichlorobenzene as the solvent: […]

[3] = Gas produced per gram on thermal decomposition; type: physicochemical; settings: 110° C.
Method: as §1
as §2, with “C.” for “C. The following half-life data have been determined:”

[4] = Solubility in petroleum hydrocarbon and common organic solvents; type: physicochemical
[5] = Preliminary toxicological studies
Description: The new compositions of the present invention eliminate these problems. Most of the new compositions are liquids and are soluble in petroleum hydrocarbon and most of the other common organic solvents. Thus, no dusting, metering, incorporating, mixing, and dispersing problems are encountered in using these new compositions. […] The less toxic nature of the new compositions coupled with their liquid and high solubility properties allows them to be used in many applications where IXA cannot be used.

[6] = background statement; cited from earlier work
[7] = cited from earlier work

Question: For `CC(C)(C)N=NC1=CCCCC1` [XXIII, 1(-tert.-butylazo)cyclohexene], which “temperature at which it evolves nitrogen” value [1] is on record?
Answer: 60 °C

Question: Which “temperature at which it begins to evolve nitrogen” value (“temperature at which it begins” for short) [1] does the source give for `COC(=O)CNC(=O)N=NC(C)(C)C` [XVI, tert.-butylazo-N-carbmethoxymethylformamide] here?
Answer: 140 °C

Question: With `CC(C)CC(C)(N=NC(C)(C)C)OOC(C)(CC(C)C)N=NC(C)(C)C` (stereo not drawn) [LVIII, Di[1-(t-butylazo)-1,3-dimethylbutyl] Peroxide] as the compound, how does the “thermal stability / gas evolution, in words” value [1] read?
Answer: began to gas rapidly upon reaching room temperature

Question: Which “temperature at which it evolves nitrogen” value [1] does the source give for `CC(C)OC(=O)N=NC(C)(C)c1ccccc1` [Isopropyl tert.-cumylazocarboxylate] here?
Answer: 80 °C

Question: For `CC(C)(C)N=NC(C)(C#N)C1CC1` (stereo not drawn) [Example XII, Alpha-tert-butylazo-alpha-cyclopropylpropionitrile], which “temperature at which it begins” value [1] is on record?
Answer: 75 °C

Question: With `CC(C)(C)N=NC(C)(C)C#N` [Example I, Alpha-(tert.-butylazo) isobutyronitrile] as the compound, how does the “t 1/2” value ([2]; 78.8° C.) read?
Answer: 10.0 h

Question: What about the “t 1/2” value ([2]; 90° C.) of the same compound?
Answer: 2.0 h

Question: And the “t 1/2” value ([2]; 100° C.)?
Answer: 0.54 h

Question: And the “t 1/2” value ([2]; 110° C.)?
Answer: 0.20 h

Question: And the gas produced [3]?
Answer: 179 cc. of gas per gram

Question: And the “solubility in petroleum solvents” value [4]?
Answer: soluble in petroleum solvents

Question: And the “toxicity relative to IXA and its decomposition residue” value [5]?
Answer: significantly less toxic

Question: For `CC(C)(C#N)N=NC(C)(C)C#N` [2,2'-azobisisobutyronitrile], which toxicity [6] is on record?
Answer: toxic solid

Question: What about the “solubility in most of the organic common solvents” value ([7]; aromatic hydrocarbons, dioxane, alcohol, ether, carbon tetrachloride) of the same compound?
Answer: very low or limited solubility

Question: What about the “solubility in petroleum hydrocarbon solvents” value [7] of the same compound?
Answer: insoluble

Question: Which “temperature at which it begins” value [1] does the source give for `CC1CC(C)(C)CC(C#N)(N=NC(C)(C)C)C1` (stereo not drawn) [VIII, 1-tert.-butylazo-1-cyano-3,3,5-trimethylcyclohexane] here?
Answer: 100 °C

Question: With `CC(C)(C)N=NC1(C(N)=O)CCCCC1` [XXIV, 1-tert. butylazo-1-carbamylcyclohexane] as the compound, how does the “temperature at which it evolves nitrogen” value [1] read?
Answer: above 120 °C

Question: Which “stability on exposure to air” value ([1]; over extended periods) does the source give for `CC(C)(C)NNC1(C#N)CCCCC1` [1-tert.-butylhydrazo-1-cyanocyclohexane] here?
Answer: evolves HCN on exposure to air over extended periods

Question: For `CC(C)(C)N=NC(C)(C)C(N)=O` [XXV, 2-t-butylazo-2-carbamylpropane], which “temperature at which it evolves nitrogen” value [1] is on record?
Answer: above 120 °C

Question: What does the source list for `CC(C)(C)N=NC(N)=O` [Example XIII, tert.-butylazoformamide]?
Answer: t 1/2 ([2]; 120° C., gas evolution technique, trichlorobenzene): 3.00 h; t 1/2 ([2]; 130° C., gas evolution technique, trichlorobenzene): 0.87 h; t 1/2 ([2]; 150° C., gas evolution technique, trichlorobenzene): 0.14 h

Question: With `CC(C)(C)N=NC(=O)NCC(=O)O` [XVII, tert.-butylazo-N-carboxymethylformamide] as the compound, how does the “temperature at which it begins” value [1] read?
Answer: 60 °C

Question: With `CC(C)CC(C)(N=NC(C)(C)C)OOC(C)(C)CCC(C)(C)OOC(C)(CC(C)C)N=NC(C)(C)C` (stereo not drawn) [LXV, 2,2,5,8,8,11,11,14,17,17,decamethyl-5,14-diisobutyl-Δ^3,15-3,4,15,16-tetraaza-6,7,12,13-tetraoxaoctadecadiene] as the compound, how does the “temperature at which it evolves nitrogen” value [1] read?
Answer: 30 °C

Question: For `CC(C)(C)N=NC1(C#N)CCCCC1` [IV, 1-tert.-butylazo-1-cyanocyclohexane], which “toxicity relative to IXA and its decomposition residue” value [5] is on record?
Answer: significantly less toxic

Question: For `CC(C)(C)N=NC(C)(C#N)CCC(=O)O` (stereo not drawn) [Example X, alpha-tert.-butylazo-alpha-methyl-gamma-carboxybutyronitrile], which “temperature at which it begins” value [1] is on record?
Answer: 85 °C

Question: What about the half-life ([2]; 75° C.) of the same compound?
Answer: 11.0 h

Question: What about the half-life ([2]; 85° C.) of the same compound?
Answer: 3.15 h

Question: For `CC(C)(C)N=NC(C)(C#N)C(C)(C)C` (stereo not drawn) [IX, 2-tert.-butylazo-2-cyano-3,3-dimethylbutane], which “temperature at which it begins” value [1] is on record?
Answer: 95 °C

Question: Which “temperature at which it evolves nitrogen” value [1] does the source give for `CC(C)(C)N=NC(=O)c1ccccc1` [Example XX, Benzoyl tert.-butyldiimide] here?
Answer: 25 °C

Question: Which “temperature at which it evolves nitrogen” value [1] does the source give for `CC(C)(C)N=NC(=O)C(C)(C)C` [Example XIX, Pivaloyl tert.-butyldiimide] here?
Answer: 35 °C

Question: With `CC(C)CC(C#N)(CC(C)C)N=NC(C)(C)C` [Example VII, 4-tert.-butylazo-4-cyano-2,6-dimethylheptane] as the compound, how does the “temperature at which it begins” value [1] read?
Answer: 70 °C

Question: Which “temperature at which it begins” value [1] does the source give for `CC(C)(C#N)N=NC(C)(C)c1ccccc1` [Example XI, Alpha-(tert.-cumylazo)isobutyronitrile] here?
Answer: 55 °C
